# Data as given in patent US20030158041A1, “Methods of and compositions for plant defoliation” (priority 2001, published 2003).
# Test system: American upland cotton
# Assay: Spray treatment of mature American upland cotton, evaluated 10, 14 and 21 days after treatment
# Type: in vivo
# [1] = 10 days after treatment, (+) EBNG = 0.13 lb/acre
# [2] = 14 days after treatment, (+) EBNG = 0.13 lb/acre
# [3] = 21 days after treatment, (+) EBNG = 0.13 lbs/acre
smiles,measurement,setting,value
"CCC(NC(=N)N[N+](=O)[O-])c1ccccc1 (single isomer, unassigned; (+)) [(+) EBNG, (+)-1-(α-ethylbenzyl)-3-nitroguanidine]",% Dead Leaves On Plants,[1],8.3%
same,% Dropped Leaves,[1],90.0%
same,% Dead Leaves On Plants,[2],5.7%
same,% Dropped Leaves,[2],93.0%
same,% New Growth Leaves,[2],1.0%
same,% Open Fruits,[2],96.0%
same,% New Growth Leaves,[3],3.7%
same,% Open Fruits,[3],98.3%
